Experimental data: PubChem BioAssay AID1963842 (Molecular Pharmacology Branch, DTP, NCI, 2024)

System: 677734-321-R-J1-PDC complex spheroid viability
Assay: Anticancer human tumor 677734-321-R-J1-PDC patient-derived soft tissue sarcoma cell line growth inhibition [POLQ]
Conditions: for IC50: curve of first compound; for viability, T/C: stronger effect = lower value
Outline: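 Patient-derived tumour cells were co-cultured with HUVEC and mesenchymal stem cells as multicellular spheroids at 37 °C. They were treated with POLQ inhibitors (novobiocin, ART-558, RP6685) alone or combined with other agents. Top concentrations were at or near clinical Cmax (otherwise 10 microM; SN-38 at 1 microM), decreasing in half-log steps.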

[1] = second compound 0.0316 µM, first compound 0.0316 µM
[2] = second compound 0.0316 µM, first compound 0.1 µM
[3] = second compound 0.0316 µM, first compound 0.316 µM
[4] = second compound 0.0316 µM, first compound 1 µM
[5] = second compound 0.0316 µM, first compound 3.16 µM
[6] = second compound 0.0316 µM, first compound 10 µM
[7] = second compound 0.1 µM, first compound 0.0316 µM
[8] = second compound 0.1 µM, first compound 0.1 µM
[9] = second compound 0.1 µM, first compound 0.316 µM
[10] = second compound 0.1 µM, first compound 1 µM
[11] = second compound 0.1 µM, first compound 3.16 µM
[12] = second compound 0.1 µM, first compound 10 µM
[13] = second compound 0.316 µM, first compound 0.0316 µM
[14] = second compound 0.316 µM, first compound 0.1 µM
[15] = second compound 0.316 µM, first compound 0.316 µM
[16] = second compound 0.316 µM, first compound 1 µM
[17] = second compound 0.316 µM, first compound 3.16 µM
[18] = second compound 0.316 µM, first compound 10 µM
[19] = second compound 1 µM, first compound 0.0316 µM
[20] = second compound 1 µM, first compound 0.1 µM
[21] = second compound 1 µM, first compound 0.316 µM
[22] = second compound 1 µM, first compound 1 µM
[23] = second compound 1 µM, first compound 3.16 µM
[24] = second compound 1 µM, first compound 10 µM
[25] = second compound 3.16 µM, first compound 0.0316 µM
[26] = second compound 3.16 µM, first compound 0.1 µM
[27] = second compound 3.16 µM, first compound 0.316 µM
[28] = second compound 3.16 µM, first compound 1 µM
[29] = second compound 3.16 µM, first compound 3.16 µM
[30] = second compound 3.16 µM, first compound 10 µM
[31] = second compound 10 µM, first compound 0.0316 µM
[32] = second compound 10 µM, first compound 0.1 µM
[33] = second compound 10 µM, first compound 0.316 µM
[34] = second compound 10 µM, first compound 1 µM
[35] = second compound 10 µM, first compound 3.16 µM
[36] = second compound 10 µM, first compound 10 µM
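Note: spheroids exposed to compounds for one week.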
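Throughout, for viability, T/C: 100% = vehicle DMSO treated spheroids.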

COc1cc(C2c3cc4c(cc3C(OC3OC5COC(C)OC5C(O)C3O)C3COC(=O)C23)OCO4)cc(OC)c1O (stereo not drawn) + Cc1cccc(N(C)C(=O)C2C(O)CCN2c2nc(C)cc(C(F)(F)F)c2C#N)c1
IC50 (second compound 0.0316 µM): 773 nM
IC50 (second compound 0.1 µM): 873 nM
IC50 (second compound 0.316 µM): 907 nM
IC50 (second compound 1 µM): 821 nM
IC50 (second compound 3.16 µM): 641 nM
IC50 (second compound 10 µM): 814 nM
viability, T/C [1]: 99.4%
viability, T/C [2]: 101%
viability, T/C [3]: 60.8%
viability, T/C [4]: 47%
viability, T/C [5]: 26.6%
viability, T/C [6]: 10.5%
viability, T/C [7]: 103%
viability, T/C [8]: 87.7%
viability, T/C [9]: 63.3%
viability, T/C [10]: 54.3%
viability, T/C [11]: 23%
viability, T/C [12]: 10.7%
viability, T/C [13]: 107%
viability, T/C [14]: 90.6%
viability, T/C [15]: 68.6%
viability, T/C [16]: 52.4%
viability, T/C [17]: 22.5%
viability, T/C [18]: 8.11%
viability, T/C [19]: 114%
viability, T/C [20]: 86.1%
viability, T/C [21]: 62.6%
viability, T/C [22]: 50.1%
viability, T/C [23]: 23.7%
viability, T/C [24]: 9.86%
viability, T/C [25]: 104%
viability, T/C [26]: 88.7%
viability, T/C [27]: 52%
viability, T/C [28]: 50.7%
viability, T/C [29]: 22%
viability, T/C [30]: 10.1%
viability, T/C [31]: 107%
viability, T/C [32]: 83.3%
viability, T/C [33]: 65.8%
viability, T/C [34]: 52.7%
viability, T/C [35]: 21.5%
viability, T/C [36]: 14.7%

Nc1ccn(C2OC(CO)C(O)C2(F)F)c(=O)n1 (stereo not drawn) + Cc1cccc(N(C)C(=O)C2C(O)CCN2c2nc(C)cc(C(F)(F)F)c2C#N)c1
IC50 (second compound 0.0316 µM): < 31.6 nM
IC50 (second compound 0.1 µM): < 31.6 nM
IC50 (second compound 0.316 µM): < 31.6 nM
IC50 (second compound 1 µM): < 31.6 nM
IC50 (second compound 3.16 µM): < 31.6 nM
IC50 (second compound 10 µM): < 31.6 nM
viability, T/C [1]: 38.5%
viability, T/C [2]: 15.2%
viability, T/C [3]: 14.2%
viability, T/C [4]: 14.7%
viability, T/C [5]: 14.9%
viability, T/C [6]: 10.1%
viability, T/C [7]: 43.5%
viability, T/C [8]: 15.1%
viability, T/C [9]: 13.7%
viability, T/C [10]: 15.4%
viability, T/C [11]: 15.8%
viability, T/C [12]: 11%
viability, T/C [13]: 31.8%
viability, T/C [14]: 22%
viability, T/C [15]: 14.1%
viability, T/C [16]: 16.9%
viability, T/C [17]: 12.4%
viability, T/C [18]: 10.8%
viability, T/C [19]: 30.9%
viability, T/C [20]: 18.4%
viability, T/C [21]: 14.3%
viability, T/C [22]: 15.4%
viability, T/C [23]: 19.6%
viability, T/C [24]: 12%
viability, T/C [25]: 35.2%
viability, T/C [26]: 14.9%
viability, T/C [27]: 14.6%
viability, T/C [28]: 13.5%
viability, T/C [29]: 13.3%
viability, T/C [30]: 13%
viability, T/C [31]: 39.8%
viability, T/C [32]: 17.3%
viability, T/C [33]: 15.3%
viability, T/C [34]: 13.7%
viability, T/C [35]: 13.3%
viability, T/C [36]: 12.2%

O=C(c1cc(Cc2n[nH]c(=O)c3ccccc23)ccc1F)N1CCN(C(=O)C2CC2)CC1 + Cc1cccc(N(C)C(=O)C2C(O)CCN2c2nc(C)cc(C(F)(F)F)c2C#N)c1
IC50 (second compound 0.0316 µM): > 10000 nM
IC50 (second compound 0.1 µM): > 10000 nM
IC50 (second compound 0.316 µM): > 10000 nM
IC50 (second compound 1 µM): > 10000 nM
IC50 (second compound 3.16 µM): > 10000 nM
IC50 (second compound 10 µM): > 10000 nM
viability, T/C [1]: 108%
viability, T/C [2]: 95.2%
viability, T/C [3]: 101%
viability, T/C [4]: 97.2%
viability, T/C [5]: 96.8%
viability, T/C [6]: 83%
viability, T/C [7]: 105%
viability, T/C [8]: 103%
viability, T/C [9]: 101%
viability, T/C [10]: 99.3%
viability, T/C [11]: 95.4%
viability, T/C [12]: 80%
viability, T/C [13]: 103%
viability, T/C [14]: 103%
viability, T/C [15]: 97.5%
viability, T/C [16]: 94.6%
viability, T/C [17]: 100%
viability, T/C [18]: 80.2%
viability, T/C [19]: 115%
viability, T/C [20]: 93.3%
viability, T/C [21]: 102%
viability, T/C [22]: 103%
viability, T/C [23]: 100%
viability, T/C [24]: 84.7%
viability, T/C [25]: 110%
viability, T/C [26]: 95.8%
viability, T/C [27]: 103%
viability, T/C [28]: 99.6%
viability, T/C [29]: 98.9%
viability, T/C [30]: 81.6%
viability, T/C [31]: 99.8%
viability, T/C [32]: 101%
viability, T/C [33]: 94.1%
viability, T/C [34]: 96.4%
viability, T/C [35]: 89.4%
viability, T/C [36]: 80.4%

O=c1[nH]cc(F)c(=O)[nH]1 + Cc1cccc(N(C)C(=O)C2C(O)CCN2c2nc(C)cc(C(F)(F)F)c2C#N)c1
IC50 (second compound 0.0316 µM): 5410 nM
IC50 (second compound 0.1 µM): 2940 nM
IC50 (second compound 0.316 µM): 3180 nM
IC50 (second compound 1 µM): 5910 nM
IC50 (second compound 3.16 µM): 6990 nM
IC50 (second compound 10 µM): 2890 nM
viability, T/C [1]: 104%
viability, T/C [2]: 110%
viability, T/C [3]: 111%
viability, T/C [4]: 93.9%
viability, T/C [5]: 54.6%
viability, T/C [6]: 44.9%
viability, T/C [7]: 107%
viability, T/C [8]: 103%
viability, T/C [9]: 104%
viability, T/C [10]: 76.5%
viability, T/C [11]: 49.2%
viability, T/C [12]: 44.8%
viability, T/C [13]: 112%
viability, T/C [14]: 108%
viability, T/C [15]: 103%
viability, T/C [16]: 97.7%
viability, T/C [17]: 49.8%
viability, T/C [18]: 47.2%
viability, T/C [19]: 104%
viability, T/C [20]: 106%
viability, T/C [21]: 108%
viability, T/C [22]: 90.9%
viability, T/C [23]: 55.9%
viability, T/C [24]: 45.1%
viability, T/C [25]: 108%
viability, T/C [26]: 105%
viability, T/C [27]: 112%
viability, T/C [28]: 101%
viability, T/C [29]: 54.3%
viability, T/C [30]: 48%
viability, T/C [31]: 104%
viability, T/C [32]: 99.3%
viability, T/C [33]: 105%
viability, T/C [34]: 83%
viability, T/C [35]: 47.6%
viability, T/C [36]: 46.8%
